Assay results taken from patent publication US6596772B1, “Phosphate mimics and methods of treatment using phosphatase inhibitors” (Sugen, Inc., priority 1999, dated 2003).
Where two headings read alike, the source gives them in different places.

How the values were obtained:
Assay in all cases: PTP IC50 assay, pNPP or FDP as substrate
Type in all cases: biochemical
PTP SIGMA = biological target: T1, PTP SIGMA (Homo sapiens, UniProt Q13332); details: pNPP or FDP as substrate, 25° C.
T1 construct: made in house; host or cells: E. coli BL-21 (pGEX 6P-1)
T1 sequence (Q13332 1320-1660 limits assumed): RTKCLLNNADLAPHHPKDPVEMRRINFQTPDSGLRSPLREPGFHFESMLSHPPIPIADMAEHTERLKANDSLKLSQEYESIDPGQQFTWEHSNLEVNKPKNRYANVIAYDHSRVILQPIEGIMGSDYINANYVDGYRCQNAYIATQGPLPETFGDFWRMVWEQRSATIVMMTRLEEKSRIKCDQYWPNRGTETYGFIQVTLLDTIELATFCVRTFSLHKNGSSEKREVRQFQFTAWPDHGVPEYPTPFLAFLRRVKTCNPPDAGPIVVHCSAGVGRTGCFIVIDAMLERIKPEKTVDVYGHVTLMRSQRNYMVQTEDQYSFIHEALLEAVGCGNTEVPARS
Experimental: (§1) The following in vitro assay procedure is preferred to determine the level of activity and effect of the different compounds of the present invention on one or more of the PTPs. Similar assays can be designed along the same lines for any PTP using techniques well known in the art.
(§2) The catalytic assays described herein are performed in a 96-well format. The general procedure begins with the determination of PTP optimal pH using a three-component buffer system that minimizes ionic strength variations across a wide range of buffer pH. Next, the Michaelis-Menten constant, or Km, is determined for each specific substrate-PTP system. This Km value is subsequently used as the substrate reaction concentration for compound screening. Finally, the test PTP is exposed to varying concentrations of compound for fifteen minutes and allowed to react with substrate for ten minutes. The results are plotted as percent inhibition versus compound concentration and the IC50 interpolated from the plot.
(§3) All assays were performed using pNPP or FDP as substrate. The optimum pH was determined for each PTP used.
(§4) PTPase activity was assayed at 25° C. in a 100-μl reaction mixture containing an appropriate concentration of pNPP or FDP as substrate. The reaction was initiated by addition of the PTP and quenched after 10 min by addition of 50 μl of IN NaOH. The non-enzymatic hydrolysis of the substrate was corrected by measuring the control without the addition of the enzyme. The amount of p-nitrophenol produced was determined from the absorbance at 410 nm. To determine the kinetic parameter, Km, the initial velocities were measured at various substrate concentrations and the data were fitted to the Michaelis equation where velocity=(Vmax*[S])/(Km+[S]), and [S]=substrate reaction concentration.
(§5) The effect of the compounds on PTP was evaluated at 25° C. using pNPP or FDP as substrate. PTP was pre-incubated for fifteen minutes with various concentrations of compound. Substrate was then added at a fixed concentration (usually equal to the Km previously calculated). After 10 minutes, NaOH was added to stop the reaction. The hydrolysis of pNPP was followed at 410 nm on the Biotek Powerwave 200 microplate scanning spectrophotometer. The percent inhibition was calculated as follows: Percent Inhibition=[(control signal−compound signal)/control signal] ×100%. The IC50 was then determined by interpolation of a percent inhibition versus compound concentration plot.
(§6) Plasmids designed for bacterial GST-PTP fusion protein expression were derived by insertion of PCR-generated human PTP fragments into pGEX vectors (Pharmacia Biotech). Several of these constructs were then used to subclone phosphatases into pFastBac-1for expression in Sf-9 insect cells. Oligonucleotides used for the initial amplification of PTP genes are shown below. The cDNAs were prepared using the Gilbo BRL superscript preamplification system on RNAs purchased from Clontech.
The PTP Sigma cDNA was amplified from human brain single strand cDNA (Clontech RNA) using the following oligonucleotides: 5′oligo: 5′-[…]-3′ (SEQ ID NO: 12) 3′oligo: 5′-[…]-3′ (SEQ ID NO: 13) and subsequently ligated into pGex 6P-1 Eco RI/Xho I sites.

PTP BETA = biological target: T2, PTP BETA (Homo sapiens, UniProt P23467); details: pNPP or FDP as substrate, 25° C.
T2 construct: The catalytic domain was amplified using the following oligonucleotides; made in house; host or cells: E. coli BL-21 (pGEX 6P-1)
T2 sequence (P23467 1653-1997): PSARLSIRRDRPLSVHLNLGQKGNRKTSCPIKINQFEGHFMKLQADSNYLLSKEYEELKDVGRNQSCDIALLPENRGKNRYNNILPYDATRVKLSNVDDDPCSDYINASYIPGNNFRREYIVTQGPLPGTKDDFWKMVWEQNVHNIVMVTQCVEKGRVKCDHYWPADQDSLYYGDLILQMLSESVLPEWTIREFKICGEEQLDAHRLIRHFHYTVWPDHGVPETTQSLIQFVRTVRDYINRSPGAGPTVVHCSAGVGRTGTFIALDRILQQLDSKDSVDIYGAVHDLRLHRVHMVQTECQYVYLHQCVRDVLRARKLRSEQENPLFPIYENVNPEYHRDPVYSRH
Experimental: as §1, §2, §3, §4, §5, §6
The PTP Beta cDNA used has been described earlier (Levy et al., 1993, J. Biol. Chem, 268:10573-10581). The catalytic domain was amplified using the following oligonucleotides: 5′oligo: 5′-[…]-3′ (SEQ ID NO: 16) 3′oligo: 5′-[…]-3′ (SEQ ID NO: 17) and subsequently cloned into the Eco RI/Xho I sites of pGEX 6P-1.

PTP SHP2 = biological target: T3, PTP SHP2 (Homo sapiens, UniProt Q06124); details: 25° C.
T3 construct: The catalytic domain was amplified using the following oligonucleotides; made in house; host or cells: Sf-9 insect cells (pFastBac-G2T)
T3 sequence (Q06124 247-517 limits assumed): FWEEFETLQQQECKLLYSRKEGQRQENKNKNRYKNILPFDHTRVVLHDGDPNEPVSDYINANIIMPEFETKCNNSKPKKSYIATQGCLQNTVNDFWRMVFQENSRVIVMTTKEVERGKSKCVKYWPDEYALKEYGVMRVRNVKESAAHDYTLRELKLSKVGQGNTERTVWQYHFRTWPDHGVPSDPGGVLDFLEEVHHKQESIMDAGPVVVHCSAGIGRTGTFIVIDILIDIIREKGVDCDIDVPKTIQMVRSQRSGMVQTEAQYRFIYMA
Experimental: as §1, §2, §3, §4, §5, §6
SHP-2 cDNA was used as described earlier (Vogel W., et al.,1993, Science, 259:1611-4). The catalytic domain was amplified using the following oligonucleotides 5′oligo: 5′-[…]-3′ (SEQ ID NO: 2) 3′oligo: 5′-[…]-3′ (SEQ ID NO: 3) and subsequently subcloned into BamH1-Xba-1 sites. It was then ligated into pfas Bac-G2T BamH1-Xba-1 sites.

PTP MU = biological target: T4, PTP MU (Homo sapiens, UniProt P28827)
T4 construct: made in house; host or cells: E. coli BL-21 (pGEX 6P-1)
T4 sequence (P28827 831-1186 limits assumed): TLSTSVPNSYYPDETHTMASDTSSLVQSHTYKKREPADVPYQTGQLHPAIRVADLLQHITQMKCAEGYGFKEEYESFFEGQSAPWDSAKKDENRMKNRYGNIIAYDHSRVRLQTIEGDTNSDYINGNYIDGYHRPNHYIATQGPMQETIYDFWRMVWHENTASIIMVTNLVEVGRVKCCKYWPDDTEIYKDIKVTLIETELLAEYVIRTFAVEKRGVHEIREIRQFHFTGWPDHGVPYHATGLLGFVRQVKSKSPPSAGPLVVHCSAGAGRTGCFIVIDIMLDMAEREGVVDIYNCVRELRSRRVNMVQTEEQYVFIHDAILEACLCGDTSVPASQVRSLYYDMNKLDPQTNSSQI
Experimental: as §1, §2, §3, §4, §5, §6
The PTP Mu cDNA was amplified from a human lung cDNA library (Clontech) using the following oligonucleotides; 5′oligo: 5′-[…]-3′ (SEQ ID NO: 18) 3′oligo: 5′-[…]-3′ (SEQ ID NO: 19) It was subsequently ligated into the Eco RI/Xho I sites of pGEX 6P-1.

[1] = pNPP or FDP as substrate, read-out: PTP IC50 SHP2
[2] = pNPP or FDP as substrate, 25° C., read-out: PTP IC50 Mu

| IC50 (PTP SIGMA; read-out: PTP IC50 Sigma) [µM] | IC50 (PTP BETA; read-out: PTP IC50 Beta) [µM] | IC50 (PTP SHP2; [1]) [µM] | IC50 (PTP MU; [2]) [µM] | Compound | IC50 (PTP SIGMA; PTP IC50 Sigma) [µM] | IC50 (PTP BETA; PTP IC50 Beta) [µM] | IC50 (PTP SHP2; PTP IC50 SHP2, pNPP or FDP as substrate) [µM] | IC50 (PTP MU) [µM] |
| --- | --- | --- | --- | --- | --- | --- | --- | --- |
| 22.9 | 8.7 | 54.3 | 37.9 | O=C(Cc1ccccc1CC(=O)Nc1cccc(S(=O)(=O)C(F)(F)F)c1)Nc1cccc(S(=O)(=O)C(F)(F)F)c1 [Example 20, N-(3-Trifluoromethanesulfonyl-phenyl)-2-{2-[(3-trifluoromethanesulfonyl-phenylcarbamoyl)-methyl]-phenyl}-acetamide] |  |  |  |  |
| 21.1 | 3.1 | 56.8 | 47.7 | O=C(Cc1cccc(CC(=O)Nc2cccc(S(=O)(=O)C(F)(F)F)c2)c1)Nc1cccc(S(=O)(=O)C(F)(F)F)c1 [Example 21, N-(3-Trifluoromethanesulfonyl-phenyl)-2-{3-[(3-trifluoromethanesulfonyl-phenylcarbamoyl)-methyl]-phenyl}-acetamide] |  |  |  |  |
| 7.8 | 1.4 | 16.3 | 17.4 | O=C(Cc1ccc(CC(=O)Nc2cccc(S(=O)(=O)C(F)(F)F)c2)cc1)Nc1cccc(S(=O)(=O)C(F)(F)F)c1 [Example 22, N-(3-Trifluoromethanesulfonyl-phenyl)-2-{4-[(3-trifluoromethanesulfonyl-phenylcarbamoyl)-methyl]-phenyl}-acetamide] |  |  |  |  |
| > 100 | 61.4 | > 100 | > 100 | O=C(O)Cc1ccccc1CC(=O)Nc1cccc(S(=O)(=O)C(F)(F)F)c1 [Example 27, {2-[(3-Trifluoromethanesulfonyl-phenylcarbamoyl)-methyl]-phenyl}-acetic acid] |  |  |  |  |
| 45.1 | 3.2 | 17.9 | > 100 | O=C(O)Cc1cccc(CC(=O)Nc2cccc(S(=O)(=O)C(F)(F)F)c2)c1 [Example 28, {3-[(3-Trifluoromethanesulfonyl-phenylcarbamoyl)-methyl]-phenyl}-acetic acid] |  |  |  |  |
| 60.6 | 6.4 | 37 | > 100 | O=C(O)Cc1ccc(CC(=O)Nc2cccc(S(=O)(=O)C(F)(F)F)c2)cc1 [Example 29, {4-[(3-Trifluoromethanesulfonyl-phenylcarbamoyl)-methyl]-phenyl}-acetic acid] |  |  |  |  |

Second part, the molecule before the results:

| Compound | IC50 (PTP SIGMA; read-out: PTP IC50 Sigma) [µM] | IC50 (PTP BETA; read-out: PTP IC50 Beta) [µM] | IC50 (PTP SHP2; [1]) [µM] | IC50 (PTP MU; [2]) [µM] | IC50 (PTP SIGMA; PTP IC50 Sigma) [µM] | IC50 (PTP BETA; PTP IC50 Beta) [µM] | IC50 (PTP SHP2; PTP IC50 SHP2, pNPP or FDP as substrate) [µM] | IC50 (PTP MU) [µM] |
| --- | --- | --- | --- | --- | --- | --- | --- | --- |
| CCOC(=O)COc1ccc(S(=O)(=O)c2ccc(Oc3ccc(S(=O)(=O)C(F)(F)F)cc3[N+](=O)[O-])cc2)cc1 [Example 17, {4-[4-(2-Nitro-4-trifluoromethanesulfonyl-phenoxy)-benzenesulfonyl]-phenoxy}-acetic acid ethyl ester] | > 100 | 26 | > 100 | > 100 |  |  |  |  |
| O=C(O)c1ccc(Oc2cccc(Oc3ccc(S(=O)(=O)C(F)(F)F)cc3)c2)cc1 [Example 18, 4-[3-(4-Trifluoromethanesulfonyl-phenoxy)-phenoxy]-benzoic acid] | 22.1 | 13.5 | 18.4 | 21.6 |  |  |  |  |
| CCOC(=O)COc1ccc(S(=O)(=O)c2ccc(Oc3ccc(S(=O)(=O)C(F)(F)F)cc3)cc2)cc1 [Example 19, {4-[4-(4-trifluoromethanesulfonyl-phenoxy)-benzenesulfonyl]-phenoxy}-acetic acid ethyl ester] | 93.3 | 1.9 | > 100 | 69.5 |  |  |  |  |
| O=[N+]([O-])c1cc(S(=O)(=O)C(F)(F)F)ccc1Oc1cc(CN2CCOCC2)c(Oc2ccc(S(=O)(=O)C(F)(F)F)cc2[N+](=O)[O-])cc1CN1CCOCC1 [Example 23, 3,6-Bis-(morpholin-4-ylmethyl)-2,5-bis-(2-nitro-4-trifluoromethanesulfonyl-phenoxy)-benzene] | 8.5 | 1.1 | 27.6 | 18.3 |  |  |  |  |
| CN(C)CC(COc1ccc(S(=O)(=O)C(F)(F)F)cc1[N+](=O)[O-])Oc1ccc(S(=O)(=O)C(F)(F)F)cc1[N+](=O)[O-] (stereo not shown) [Example 24, [2,3-Bis-(2-nitro-4-trifluoromethanesulfonyl-phenoxy)-propyl]-dimethyl-amine] | 53.5 | 5.1 | > 100 | > 100 |  |  |  |  |
| CCNc1ccc(S(=O)(=O)C(F)(F)F)cc1NC(=O)Cc1ccc(S(C)(=O)=O)cc1 [Example 25, N-(2-Ethylamino-5-trifluoromethanesulfonyl-phenyl)-2-(4-methanesulfonyl-phenyl)-acetamide] | > 71 | 0.35 | > 100 | 48.8 |  |  |  |  |
| CCOC(=O)c1cc(Oc2ccc(S(=O)(=O)C(F)(F)F)cc2[N+](=O)[O-])c(C(=O)OCC)cc1O [Example 26, 2-Hydroxy-5-(2-nitro-4-trifluoromethanesulfonyl-phenoxy)-terephthalic acid diethyl ester] | 69 | 2.9 | > 100 | 65 |  |  |  |  |
| NC(=O)c1cc(Oc2ccc(S(=O)(=O)C(F)(F)F)cc2[N+](=O)[O-])cc(Oc2ccc(S(=O)(=O)C(F)(F)F)cc2[N+](=O)[O-])c1 [Example 30, 3,5-Bis-(2-nitro-4-trifluoromethanesulfonyl-phenoxy)-benzamide] |  |  |  |  | 26.5 | 3.4 | 52.8 | 28.4 |
| O=C(O)c1cc(Oc2ccc(S(=O)(=O)C(F)(F)F)cc2)cc(Oc2ccc(S(=O)(=O)C(F)(F)F)cc2)c1 [Example 31, 3,5-Bis-(4-trifluoromethanesulfonyl-phenoxy)-benzoic acid] | 7.7 | 4.5 | 5.7 | 8.7 |  |  |  |  |
| O=S(=O)(Nc1ccc(CCc2ccc(NS(=O)(=O)C(F)(F)F)cc2)cc1)C(F)(F)F [Example 66, 1,2-Bis(4-trifluoromethylsulfonamidophenyl)ethane] | > 100 | 39.9 | 36.6 | 70.9 |  |  |  |  |
